Series [1] has as its system glutathione (GSH) in liver. Kind of series: In vivo reduced glutathione (GSH) level in liver homogenate. Also on record: species or system male Wistar albino rats. The note with it: rat liver; 100 mg/kg orally for 3 days; mean ± SEM, n = 6. Here is the method:
(§1) The complete progress of the experiment was conducted using male Wistar albino rats (200–250 g), delivered by the Institutional Breeding House, Egypt, reared and maintained in the animal house of the institution. The animals had free access to food and water ad libitum and maintained in a controlled environment under standard conditions of temperature and humidity with an alternating 12 h light and dark cycle for about a week for acclimatization. The protocol of the study was approved by the Animal Ethics Committee of the Faculty of Pharmacy, Helwan University (ethical code number: 05A2019; date: October 2019). The study was conducted in accordance with the EC, directive 86/609/EEC for animal experiments.
(§2) Rats are weighed at the beginning and at the end of experiment. Fifty-four male albino rats (n=6) were divided into nine different groups. Group I served as a control group and treated with the same volume vehicle only. Group II treated with 100 mg/kg of Ascorbic acid as standard antioxidant drug. Groups (III–IX) orally administered 100 mg/kg of compounds 3a, 4e, 5b, 5c, 6a, 6c, 6e, respectively, for 3 days. The animals were sacrificed by cervical dislocation 24 h after the last dose. Sacrificing is carried out at the same time of the day, to avoid the circadian variation in the level of tissue GSH[53]. Each liver was excised, weighed, rinsed in ice-cold normal saline and frozen for not more than 72 h await analysis of endogenous antioxidant status (GSH levels and CAT activity) and lipid peroxide concentrations. For performing biochemical assays, a 10% liver homogenate in 10 mM phosphate buffer was prepared using tissue homogeniser (Glas-Col®, Cat no.099C K6424, TERRE HAUTE, USA).
Levels of glutathione (GSH) in liver homogenates were assayed by the deproteinization of tissue homogenate. Then […] supernatant was mixed with di-potassium hydrogen phosphate buffer (pH 8) and 0.4% 5,5′-dithiobis-2-nitrobenzoic acid (Ellman’s reagent). The yellow-coloured substance formed was measured at 412 nm. The results were expressed as GSH mg/g tissue.

A short description of series [2]: Superoxide scavenging assay (pyrogallol autoxidation). The note with it: mean ± SEM of three experiments; pyrogallol autoxidation, 325 nm. How it is done:
The improved pyrogallol autoxidation method was used to determine O2^−. RSA of all synthesized compounds as previously described. Briefly, 50 µL of test compounds (12.5, 25, 50,100, and 200 µg/mL) was added to 2900 µl of […] Tris HCl buffer (0.05 M, pH 7.4) containing 1-mM Na2EDTA. Next, 50 µL of 60-mM pyrogallol in1mM HCl had been thoroughly mixed with the mixture. The absorbance of the reaction mixture was measured at A325 nm every 30 s for 5 min. O2^− RSA was expressed by the oxidation degree of a test group in comparison to that of the control. The absorbance at 325 nm was measured against the Tris-HCl buffer every 30 s for 5 min. The percentage of scavenging effect was calculated using the following equation: O2^− radical scavenging %=[(ΔA325, control/T)−(ΔA325nm, sample/T)/ΔA325nm, control/T]×100 where ΔA325 nm, control is the increase in A325 nm of the reaction mixture without the sample and ΔA325 nm, sample is that for the mixture with the sample; T=5 min. The experiments were performed in triplicate.

Series [3] has as its system Catalase (CAT) activity in liver. Kind of series: In vivo catalase (CAT) activity in liver homogenate. Also noted: species or system male Wistar albino rats. The following applies: rat liver; 100 mg/kg orally for 3 days; mean ± SEM, n = 6. How it is done:
as §1, §2
Catalase activity in 10% liver homogenates was determined spectrophotometrically according to Sinha AK[54]. The decrease in absorbance at 240 nm due to H2O2 decomposition was measured and the results were expressed in U/mg tissue.

Series [4] can be described thus: NO scavenging assay (sodium nitroprusside / Griess reagent). The note with it: mean ± SEM of three experiments; 90 min, 546 nm. How it is done:
The NO scavenging activity of all synthesized compounds was measured as previously described by Ho et al.[50] Briefly, 50 µL of different concentrations of the tested compounds (12.5, 25, 50,100, and 200 µg/mL) were pipetted into a 96-well plate. Then, 50 µL of 10-mM sodium nitroprussides dissolved in phosphate-buffered saline PBS (pH 7.4) were added to each well and the plate was incubated for 90 min at room temperature. Next, an equal volume of Griess reagent (1% of sulphanilamide and 0.1% of naphthyl ethylene diamine in 2.5% […]) was added to each well to measure the nitrite content. The absorbance of the formed pink-coloured chromophore was measured at λ 546 nm. DMSO and ascorbic acid were used as the negative and positive control, respectively. All tests were performed in triplicate. The percentage of NO scavenging activity was calculated according to the following equation: % of NO scavenging=[(Acontrol−Asample)/Acontrol]×100 where Acontrol is the absorbance of the control reaction (with all reagents except the test compound), and Asample is the absorbance of the test sample.
A general note: Griess reagent forms a coloured azo dye with nitrite.

Series [5] concerns lipid peroxidation (MDA) in liver. Kind of series: In vivo lipid peroxide level (TBARS/MDA) in liver homogenate. Also noted: species or system male Wistar albino rats. The note with it: rat liver; 100 mg/kg orally for 3 days; mean ± SEM, n = 6. Here is the method: as §1, §2
Lipid peroxidation level in the liver homogenates was determined as thiobarbituric acid reactive substances (TBARS) by measuring malondialdehyde ‘MDA’ level according to Mihara and Uchiyama[56]. Briefly, 0.5 mL supernatant of tissue homogenate was mixed with 0.6% thiobarbituric acid (TBA) and 1% orthophosphoric acid solution, and heated in a boiling water bath for 45 min. The pink-coloured chromogen formed by the reaction of TBA with MDA was extracted by n-butanol and measured at 535 nm. The results were expressed as nmol/g tissue.

Series [6] in a line: DPPH radical scavenging assay. The following applies: mean ± SEM of three experiments; 30 min, 517 nm. Here is the method:
The DPPH scavenging activity of all synthesized compounds was measured as previously described by Nahar et al.[48] with some modifications. Briefly, 100 µL of different concentrations of the tested compounds (12.5, 25, 50, 100, and 200 µg/mL) were pipetted into a 96-well plate. Then, 100 µL of 100-µM DPPH methanolic solution were added to each well and the plate was incubated protected from light at room temperature for 30 min. The absorbance of the solution was measured at λ517 nm.[49] Ascorbic acid was used as the positive control while DMSO was the negative control. The percentage of DPPH scavenging activity was calculated according to the following equation: % of DPPH scavenging=[(Acontrol–Asample)/Acontrol] ×100, where Acontrol is the absorbance of the control reaction (with all reagents except the test compound), and Asample is the absorbance of the test sample. […] All tests were performed in triplicates.

On the set-up of series [7]: method as in PMID 24752861. The note with it: at 10^−4 M concentration; cited from earlier work.
For a further series, the target named is T1, Soybean 15-LOX enzyme (Glycine max, UniProt P08170).
T1 construct: purchased Cayman Chemical 760700
T1 sequence (P08170 1-839): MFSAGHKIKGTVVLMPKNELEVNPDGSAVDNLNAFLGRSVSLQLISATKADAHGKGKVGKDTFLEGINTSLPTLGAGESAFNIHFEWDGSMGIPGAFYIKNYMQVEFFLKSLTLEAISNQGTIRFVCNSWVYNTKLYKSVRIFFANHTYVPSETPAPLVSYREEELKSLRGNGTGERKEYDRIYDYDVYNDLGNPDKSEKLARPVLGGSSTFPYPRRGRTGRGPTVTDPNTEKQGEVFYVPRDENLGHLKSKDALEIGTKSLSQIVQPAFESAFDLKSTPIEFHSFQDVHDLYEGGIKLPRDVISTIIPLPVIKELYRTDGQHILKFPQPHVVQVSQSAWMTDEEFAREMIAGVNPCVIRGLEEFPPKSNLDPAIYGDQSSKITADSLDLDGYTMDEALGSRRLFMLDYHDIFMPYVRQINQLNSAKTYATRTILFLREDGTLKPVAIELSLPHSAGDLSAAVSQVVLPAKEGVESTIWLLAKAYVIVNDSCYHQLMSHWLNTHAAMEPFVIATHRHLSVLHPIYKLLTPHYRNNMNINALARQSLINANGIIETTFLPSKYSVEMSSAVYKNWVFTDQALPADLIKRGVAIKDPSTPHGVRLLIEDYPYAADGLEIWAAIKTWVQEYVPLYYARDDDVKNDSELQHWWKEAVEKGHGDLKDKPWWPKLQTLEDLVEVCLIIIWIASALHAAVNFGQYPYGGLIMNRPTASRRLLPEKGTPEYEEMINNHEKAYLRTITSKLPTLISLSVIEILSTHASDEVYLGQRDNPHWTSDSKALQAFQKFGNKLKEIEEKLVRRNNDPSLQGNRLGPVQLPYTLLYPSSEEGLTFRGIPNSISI
Kind of series: In vitro lipoxygenase inhibition (Cayman lipoxygenase inhibitor screening assay kit). Type of series: biochemical. The following applies: mean ± SEM of three experiments; substrate arachidonic acid. Here is the method: The assay was performed using Cayman’s lipoxygenase inhibitor screening assay kit (Catalog No. 760700, Cayman Chemical, USA) according to the manufacturer’s instructions. Briefly, 90 µL of 15-LOX was pipetted into a 96-well plate. Next, 10 µL of test compound at concentrations (2.5, 5.0 and 10 µM) dissolved in DMSO were added to each well. The reaction was initiated by adding 10 µL substrate (AA) and the plate was placed on a shaker for at least 5 minutes. Finally, 100 µL of chromogen (prepared according to manufacturer’s instructions) was added to each well to stop enzyme catalysis and develop the reaction. 100 µL of Assay buffer (0.1 M Tris-HCl, pH7.4) was used in blank wells. […] The absorbance of the solution was measured at λ 490–500 nm. The percentage inhibition was calculated according to the following equation: % inhibition =[(IA−Ainhibitor sample)/IA]×100 where (IA) is the 100% initial activity and (Ainhibitor sample) is the absorbance of the test sample. Dose–response curve was plotted between % inhibition and the drug concentration. The non-linear dose–response curve was used for calculating drug concentration showing 50% enzyme inhibition.

The values that follow come from paper PMC7170299, “Design, synthesis, molecular modelling and biological evaluation of novel 3-(2-naphthyl)-1-phenyl-1H-pyrazole derivatives as potent antioxidants and 15-Lipoxygenase inhibitors” (Journal of Enzyme Inhibition and Medicinal Chemistry, 2020).

In general, IC50 refers to the concentration at which inhibition is half-maximal. A low value points to inhibition by little substance. The term melting point denotes the temperature of the solid-liquid transition.

As for `O=C1O[C@H]([C@@H](O)CO)C(O)=C1O` [Ascorbic acid, reference compound], in [1], the GSH is listed as 8.25 ± 0.45 mg/g tissue. Besides, the “Superoxide IC50” value in [2] was 124.99 ± 1.32 µg/mL. For the same compound, the CAT in [3] was 42.56 ± 3.76 U/mg tissue. The “NO IC50” value in series [4] was 37.9 ± 1.31 µg/mL. In series [5], this compound displayed a TBARS of 0.392 ± 0.07 nmol/g tissue. In [6], the “DPPH IC50” value is reported as 13.67 ± 0.97 µg/mL.
`Cc1cc(C(C)(C)C)c(O)c(C(C)(C)C)c1` [BHT7, butylated hydroxy toluene]: in [7], the DPPH scavenging activity is given as 20%.
For `COc1ccc(C2=NN(c3ccccc3)C(c3cn(-c4ccccc4)nc3-c3ccc4ccccc4c3)C2)cc1` (centres unmarked) [Compound 4b, 5-(4-Methoxyphenyl)-3′-naphthalen-2-yl-2,1′-diphenyl-3,4-dihydro-2H,1’H-[3,4′] bipyrazole], the melting point lay within 156 to 157 °C. The “Superoxide IC50” value in [2] worked out at 65.63 ± 1.46 µg/mL. Further, in series [4], the “NO IC50” value is recorded as more than 200 µg/mL. On Soybean 15-LOX enzyme, this compound registered an IC50 of 4000 ± 60 nM. The “DPPH IC50” value in [6] is 21.28 ± 1.14 µg/mL.
For `Cc1ccc(C2=NN(c3ccccc3)C(c3cn(-c4ccccc4)nc3-c3ccc4ccccc4c3)C2)cc1` (centres unmarked) [Compound 4c, 3′-Naphthalen-2-yl-2,1′-diphenyl-5-p-tolyl-3,4-dihydro-2H, 1’H -[3,4′]bipyrazole] the same measures were 198 to 199 °C, 145.7 ± 1.42 µg/mL, 179.9 ± 1.31 µg/mL, 1830 ± 70 nM and 24.42 ± 0.9 µg/mL.
The corresponding values for `c1ccc(C2=NOC(c3cn(-c4ccccc4)nc3-c3ccc4ccccc4c3)C2)cc1` (centres unmarked) [Compound 5a, 5-(3-Naphthalen-2-yl-1-phenyl-1H-pyrazol-4-yl)-3-phenyl-4,5-dihydro-isoxazole] are 190 to 191 °C, 192.37 ± 1.74 µg/mL, 37.5 ± 1.36 µg/mL, 5530 ± 70 nM and 97.17 ± 1.4 µg/mL.
For `Clc1ccc(C2=NOC(c3cn(-c4ccccc4)nc3-c3ccc4ccccc4c3)C2)cc1Cl` (centres unmarked) [Compound 5e, 3-(3,4-Dichlorophenyl)-5-(3-naphthalen-2-yl-1-phenyl-1H-pyrazol-4-yl)-4,5-dihydro isoxazole] the same measures were 187 to 189 °C, 168.77 ± 1.42 µg/mL, 96.56 ± 1.4 µg/mL, 3000 ± 60 nM and 38.44 ± 1.28 µg/mL.
For `COc1ccc(C2=NN(C(N)=S)C(c3cn(-c4ccccc4)nc3-c3ccc4ccccc4c3)C2)cc1` (centres unmarked) [Compound 6b], the melting point was in the range of 193 to 194 °C. For the same compound, the “Superoxide IC50” value in series [2] is more than 200 µg/mL. Besides, in series [4], the “NO IC50” value came out at 198.08 ± 1.28 µg/mL. For the same compound, the concentration for half-maximal inhibition (IC50) against Soybean 15-LOX enzyme is 1900 ± 60 nM. For the same compound, the “DPPH IC50” value in series [6] was 12.02 ± 0.63 µg/mL.
With `NC(=S)N1N=C(c2ccc(Cl)cc2)CC1c1cn(-c2ccccc2)nc1-c1ccc2ccccc2c1` (centres unmarked) [Compound 6d], the melting point is 186 to 187 °C. Besides, the “Superoxide IC50” value in [2] is on record as more than 200 µg/mL. Besides, the “NO IC50” value in series [4] amounted to 148.08 ± 1.36 µg/mL. The IC50 against Soybean 15-LOX enzyme came to 1670 ± 30 nM. Also, the “DPPH IC50” value in [6] is listed as more than 200 µg/mL.
Consider `NS(=O)(=O)c1ccc(N2N=C(c3ccco3)CC2c2cnn(-c3ccccc3)c2)cc1` (centres unmarked) [XI], for which the DPPH scavenging activity in [7] was 19%.
